This note sets out measurements from patent US20110059962A1, “TRANSCRIPTION FACTOR MODULATING COMPOUNDS AND METHODS OF USE THEREOF” (priority 2009, published 2011).

One assay has as its target T1, SoxS (Escherichia coli, UniProt P0A9E2).
T1 construct: made in house; host or cells: E. coli
T1 sequence (P0A9E2 1-107): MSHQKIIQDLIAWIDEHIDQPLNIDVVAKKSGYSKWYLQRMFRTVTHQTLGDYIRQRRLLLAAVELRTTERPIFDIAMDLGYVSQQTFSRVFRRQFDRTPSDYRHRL
Nature of the assay: Inhibition of SoxS-DNA binding, cell-free chemiluminescence assay. More on the design: species or system E. coli.

The target of the next assay is T2, SlyA (Salmonella typhimurium, UniProt P40676).
T2 construct: made in house; host or cells: E. coli
T2 sequence (P40676 1-144): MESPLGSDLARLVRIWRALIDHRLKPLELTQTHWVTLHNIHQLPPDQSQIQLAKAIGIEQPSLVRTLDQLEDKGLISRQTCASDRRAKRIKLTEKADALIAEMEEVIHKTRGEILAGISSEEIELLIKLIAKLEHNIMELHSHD
Description: Inhibition of SlyA-DNA binding, cell-free chemiluminescence assay (specificity). More on the design: species or system S. typhimurium enterica serovar Typhimurium.

The next assay deals with T3, ExsA (Pseudomonas aeruginosa, UniProt P26993).
T3 construct: made in house
T3 sequence (P26993 1-278): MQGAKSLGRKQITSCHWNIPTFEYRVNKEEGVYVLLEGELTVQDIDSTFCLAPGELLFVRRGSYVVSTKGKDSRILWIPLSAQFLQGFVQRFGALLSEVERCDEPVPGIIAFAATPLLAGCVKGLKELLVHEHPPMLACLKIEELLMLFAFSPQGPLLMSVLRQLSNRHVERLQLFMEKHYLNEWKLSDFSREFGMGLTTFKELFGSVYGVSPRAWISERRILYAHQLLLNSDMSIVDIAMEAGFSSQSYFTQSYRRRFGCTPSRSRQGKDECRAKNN
Description: Inhibition of ExsA-DNA binding, cell-free chemiluminescence assay. More on the design: species or system P. aeruginosa.

In assay [1] the test system is Y. pseudotuberculosis cytotoxicity toward J774 cells. Nature of the assay: microbe, parasite or virus in culture. To be noted: Yersinia pseudotuberculosis, J774, read-out: % Cytotoxicity.
The subject of assay [2] is P. aeruginosa cytotoxicity toward J774 cells. Description: Inhibition of P. aeruginosa cytotoxicity toward J774 macrophage-like cells, whole cell LDH release assay (CytoTox 96). More on the design: dose or concentration left out as unconfirmed. Particulars: Pseudomonas aeruginosa, J774, read-out: % Cytotoxicity. On the technique in general: LDH in the medium is a marker of cell lysis.

In a further assay the target is LcrF (VirF) (Yersinia pestis, UniProt P28808). Nature of the assay: biochemical. The class given is binding, Y. pseudotuberculosis.
The subject of assay [3] is pET-15b supercoiled plasmid DNA. Nature of the assay: Assay to detect direct DNA binding (UV fluorescence and agarose gel migration of plasmid DNA). Particulars: 100 μg/mL; 100 ng pET-15b plasmid, 30 minutes at room temperature.

For orientation: IC50 means the concentration needed to halve the response being measured.

Each structure is given as a SMILES string.

LcrF (VirF), sequence (P28808 whole entry, looked up): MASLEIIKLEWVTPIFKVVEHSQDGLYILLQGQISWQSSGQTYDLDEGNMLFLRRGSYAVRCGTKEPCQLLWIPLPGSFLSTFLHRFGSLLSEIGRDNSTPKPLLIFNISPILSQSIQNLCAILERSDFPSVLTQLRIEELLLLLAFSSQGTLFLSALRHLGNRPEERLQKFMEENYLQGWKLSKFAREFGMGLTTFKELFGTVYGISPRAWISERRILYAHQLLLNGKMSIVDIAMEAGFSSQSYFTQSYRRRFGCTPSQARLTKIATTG

In the case of `CC(=O)c1ccc(/C=C/C(=O)Nc2ccc(-c3nc4c(CC(=O)O)cc([N+](=O)[O-])cc4n3O)cc2)cc1` [Compound J, (2-{4-[(E)-3-(4-Acetyl-phenyl)-acryloylamino]-phenyl}-1-hydroxy-6-nitro-1H-benzoimidazol-4-yl)-acetic acid], the IC50 at SoxS is < 10 µM; on SlyA, 25 to 50 µM; at ExsA it was < 10 µM; against LcrF (VirF), < 10 µM. The activity at 50 µg/mL in assay [1] is < 75%. Also, the activity in assay [2] was < 75%.
Regarding `CCOc1ccc(-c2nc3ccc(-c4nc5ccc(N6CCN(C)CC6)cc5[nH]4)cc3[nH]2)cc1` [Hoechst 33342], the “fluorescence under UV light and DNA migration on agarose gel” value in assay [3] was “bright fluorescence under UV light and a faint smear on the gel”.
Take `CC(=O)c1ccc(/C=C/C(=O)Nc2ccc(-c3nc4c(CC(=O)O)cc([N+](=O)[O-])cc4n3O)cc2)cn1` [Compound V, (2-{4-[(E)-3-(6-Acetyl-pyridin-3-yl)-acryloylamino]-phenyl}-1-hydroxy-6-nitro-1H-benzoimidazol-4-yl)-acetic acid]: the IC50 at SlyA is 25 to 50 µM; on ExsA, < 10 µM; against LcrF (VirF) it was < 10 µM. Also, in assay [1], the activity at 50 µg/mL was < 75%. Moreover, in assay [2], the activity is < 75%.
